“Also recorded” adds a separate entry of the source. Like-named read-outs stand apart in the source and are kept apart here.
Experiments:
[1] = test system: SmoA1 murine SHH-activated MB organotypic slice culture; assay: Murine MB organotypic slice culture (OSC), cell death by cleaved caspase 3 staining; conditions: 24 h treatment; for cell death (CC3 staining), result in words: relative to vehicle control; for concentration giving significant increase in cell death (CC3 standardized to DAPI): compared to control
[2] = test system: MB tumor stem-like cells (nestin-positive) in SmoA1 OSCs; assay: SmoA1 OSC, CC3 and nestin co-staining (death of tumor stem-like cells); format: cell-based, mouse
Method: DAPI=nuclear stain, DMSO=vehicle. Treatment of human MB cells and SmoA1 OSCs with WP1066 in combination with fisetin further enhances the inhibition of cell proliferation in vitro induction of tumor cell death diffusely ex vivo, but synergistically kills the tumor stem-like cell population specifically.
Given that STA 3 and YB-1 expression colocalized to the cancer stem cell-like cells of the perivascular niche environment, experiments were performed to determine whether combined treatment with these inhibitors, fisetin and WPHH66, leads: to increased tumor cell and/or tumor stem cell like cell death. The effect of combination treatment was evaluated in the in vitro proliferation and colony formation assays. […] Next, experiments were performed to determine whether this effect was more pronounced in the stem cell compartment, where YB-1 and STAT3 are most highly expressed. SmoA1 MB ex vivo brain slices were treated with WP1066, fisetin, or combined treatment thereof. The slices were immunostained for the tumor stem-like cell marker nestin and the cell death marker CC3 to quantify the amount of cell death in the tumor stem-like cells.

[3] = test system: patient-derived non-WNT/SHH MB OSC; assay: Patient-derived MB OSC, cell death by CC3 staining; format: cell-based, human; conditions: relative to vehicle controls
Method: Ex vivo, cultures can be used to evaluate drug effects on murine MB tumor cells in their microenvironment. Experiments were performed to determine whether OSC could be used as a “precision medicine” technique in medulloblastoma, e.g., whether biopsy sample from either a newly diagnosed or relapsed medulloblastoma patient could be directly obtained in the operating room, transferred to the lab, and OSCs generated and tested per the protocol, with readout of the efficacy of potential treatments within 3 days. After obtaining fresh tumor tissue from a newly diagnosed patient with a cerebellar tumor, an OSC assay using this patient-derived medulloblastoma specimen was performed. Four tumor slices were treated with vehicle (DMSO or PBS) and 6 tumor slices were treated with WP1066, fisetin, and cisplatin as positive control. […] Therefore this assay can be used at the time of diagnosis, indicating the feasibility of OSC for use in a personalized medicine based testing approach (FIG. 5C) in pediatric brain tumors. Later the neuropathology report confirmed isochromosome 17q in the specimen without MYC or MYCN amplification consistent with a non-WNT/SHH MB.

[4] = test system: Group 3-like D556 MB cells; assay: Proliferation of Group 3-like MB cells
[5] = Homo sapiens, read-out: IC50, inhibition of proliferation, D556

| SMILES | cell death (CC3 staining), result in words [1] | percentage of CC3/nestin-positive cells (dead nestin-positive cells) [2] [%] | cell death (CC3 staining), result in words [3] | IC50 [4, 5] [nM] | IC50 ([4]; read-out: IC50, inhibition of proliferation, D556) [nM] | concentration giving significant increase in cell death (CC3 standardized to DAPI) [1] | cell death (CC3 staining), result in words ([3]; listed as Fisetin) |
| --- | --- | --- | --- | --- | --- | --- | --- |
| Nc1nc(=S)c2[nH]cnc2[nH]1 [6-thioguinine] | minimal increase in cell death |  |  |  |  |  |  |
| CS(=O)(=O)OCCCCOS(C)(=O)=O [Busulfan] | minimal increase in cell death |  |  |  |  |  |  |
| CC(NC(=O)C(C#N)=Cc1cccc(Br)n1)c1ccccc1 (stereo not shown) [WP1066, 3-(6-bromopyridin-2-yl)-2-cyano-N-(1-phenylethyl)acrylamide] | significantly increased cell death; also recorded: induces marked tumor cell death; also recorded: dose-dependent increase in cell death | 1.4 | induced cell death; also recorded: Increase in cell death | 1500 | 1200 | greater than 1.5 μM |  |
| N.N.[Cl][Pt][Cl] [cisplatin] |  |  | Increase in cell death |  |  | 2 µM |  |
| O=c1c(O)c(-c2ccc(O)c(O)c2)oc2cc(O)ccc12 [fisetin, 2-(3,4-dihydroxyphenyl)-3,7-dihydroxy-4H-chromen-4-one] | induces marked tumor cell death; also recorded: dose-dependent increase in cell death | 1.6 | Increase in cell death | 3600 |  | > 4 µM | induced cell death |

Reference: US20210145806A1, “Methods of Treating Brain Cancer and Related Diagnostic Methods” (Emory University, priority 2019, published 2021)
